Test results published in patent US20090304692A1, “TRIAZINE COMPOUNDS AS PI3 KINASE AND MTOR INHIBITORS” (Wyeth, priority 2008, published 2009).
“And” between values parts separate entries of the source, which are not always exact repeats. Equal values may be shown once. Read-outs that look alike come from different tables or passages of the source.

Columns and labels:
Human mTOR (FLAG-TOR) = Human mTOR (FLAG-TOR) (Homo sapiens, UniProt P42345); assay: mTOR kinase assay (DELFIA format, purified enzyme); format: biochemical; settings: read-out: IC50 mTOR
human SMG-1 (hSMG-1) = human SMG-1 (hSMG-1) (Homo sapiens, UniProt Q96Q15); assay: hSMG-1 kinase assay (DELFIA); format: biochemical
[1] = tested on: human prostate LNCap tumor cell line; assay: In vitro cell culture growth assay (MTS), LNCap; settings: Homo sapiens, LNCaP, 72 h, read-out: IC50 LNCap
PI3K-γ = PI3K-γ (Homo sapiens, UniProt P48736); assay: PI3K-gamma fluorescence polarization assay
PI3K-α = PI3K-α (Homo sapiens, UniProt P42336); assay: PI3K-alpha fluorescence polarization assay; settings: read-out: IC50 PI3Kα
[2] = tested on: human prostate PC3-mm2 tumor cell line; assay: In vitro cell culture growth assay (MTS), PC3-mm2; format: cell-based; settings: Homo sapiens, PC3MM2, 72 h, MTS cell growth assay, three days after drug treatment, read-out: IC50 PC3-mm2
[3] = tested on: human breast MDA-MB-361 tumor cell line; assay: In vitro cell culture growth assay (MTS), MDA-MB-361; format: cell-based; settings: Homo sapiens, MDA-MB-361, 72 h; MTS cell growth assay, three days after drug treatment; read-out: IC50 MDA-MB-361

Sequence of human SMG-1 (hSMG-1) (Q96Q15 whole entry): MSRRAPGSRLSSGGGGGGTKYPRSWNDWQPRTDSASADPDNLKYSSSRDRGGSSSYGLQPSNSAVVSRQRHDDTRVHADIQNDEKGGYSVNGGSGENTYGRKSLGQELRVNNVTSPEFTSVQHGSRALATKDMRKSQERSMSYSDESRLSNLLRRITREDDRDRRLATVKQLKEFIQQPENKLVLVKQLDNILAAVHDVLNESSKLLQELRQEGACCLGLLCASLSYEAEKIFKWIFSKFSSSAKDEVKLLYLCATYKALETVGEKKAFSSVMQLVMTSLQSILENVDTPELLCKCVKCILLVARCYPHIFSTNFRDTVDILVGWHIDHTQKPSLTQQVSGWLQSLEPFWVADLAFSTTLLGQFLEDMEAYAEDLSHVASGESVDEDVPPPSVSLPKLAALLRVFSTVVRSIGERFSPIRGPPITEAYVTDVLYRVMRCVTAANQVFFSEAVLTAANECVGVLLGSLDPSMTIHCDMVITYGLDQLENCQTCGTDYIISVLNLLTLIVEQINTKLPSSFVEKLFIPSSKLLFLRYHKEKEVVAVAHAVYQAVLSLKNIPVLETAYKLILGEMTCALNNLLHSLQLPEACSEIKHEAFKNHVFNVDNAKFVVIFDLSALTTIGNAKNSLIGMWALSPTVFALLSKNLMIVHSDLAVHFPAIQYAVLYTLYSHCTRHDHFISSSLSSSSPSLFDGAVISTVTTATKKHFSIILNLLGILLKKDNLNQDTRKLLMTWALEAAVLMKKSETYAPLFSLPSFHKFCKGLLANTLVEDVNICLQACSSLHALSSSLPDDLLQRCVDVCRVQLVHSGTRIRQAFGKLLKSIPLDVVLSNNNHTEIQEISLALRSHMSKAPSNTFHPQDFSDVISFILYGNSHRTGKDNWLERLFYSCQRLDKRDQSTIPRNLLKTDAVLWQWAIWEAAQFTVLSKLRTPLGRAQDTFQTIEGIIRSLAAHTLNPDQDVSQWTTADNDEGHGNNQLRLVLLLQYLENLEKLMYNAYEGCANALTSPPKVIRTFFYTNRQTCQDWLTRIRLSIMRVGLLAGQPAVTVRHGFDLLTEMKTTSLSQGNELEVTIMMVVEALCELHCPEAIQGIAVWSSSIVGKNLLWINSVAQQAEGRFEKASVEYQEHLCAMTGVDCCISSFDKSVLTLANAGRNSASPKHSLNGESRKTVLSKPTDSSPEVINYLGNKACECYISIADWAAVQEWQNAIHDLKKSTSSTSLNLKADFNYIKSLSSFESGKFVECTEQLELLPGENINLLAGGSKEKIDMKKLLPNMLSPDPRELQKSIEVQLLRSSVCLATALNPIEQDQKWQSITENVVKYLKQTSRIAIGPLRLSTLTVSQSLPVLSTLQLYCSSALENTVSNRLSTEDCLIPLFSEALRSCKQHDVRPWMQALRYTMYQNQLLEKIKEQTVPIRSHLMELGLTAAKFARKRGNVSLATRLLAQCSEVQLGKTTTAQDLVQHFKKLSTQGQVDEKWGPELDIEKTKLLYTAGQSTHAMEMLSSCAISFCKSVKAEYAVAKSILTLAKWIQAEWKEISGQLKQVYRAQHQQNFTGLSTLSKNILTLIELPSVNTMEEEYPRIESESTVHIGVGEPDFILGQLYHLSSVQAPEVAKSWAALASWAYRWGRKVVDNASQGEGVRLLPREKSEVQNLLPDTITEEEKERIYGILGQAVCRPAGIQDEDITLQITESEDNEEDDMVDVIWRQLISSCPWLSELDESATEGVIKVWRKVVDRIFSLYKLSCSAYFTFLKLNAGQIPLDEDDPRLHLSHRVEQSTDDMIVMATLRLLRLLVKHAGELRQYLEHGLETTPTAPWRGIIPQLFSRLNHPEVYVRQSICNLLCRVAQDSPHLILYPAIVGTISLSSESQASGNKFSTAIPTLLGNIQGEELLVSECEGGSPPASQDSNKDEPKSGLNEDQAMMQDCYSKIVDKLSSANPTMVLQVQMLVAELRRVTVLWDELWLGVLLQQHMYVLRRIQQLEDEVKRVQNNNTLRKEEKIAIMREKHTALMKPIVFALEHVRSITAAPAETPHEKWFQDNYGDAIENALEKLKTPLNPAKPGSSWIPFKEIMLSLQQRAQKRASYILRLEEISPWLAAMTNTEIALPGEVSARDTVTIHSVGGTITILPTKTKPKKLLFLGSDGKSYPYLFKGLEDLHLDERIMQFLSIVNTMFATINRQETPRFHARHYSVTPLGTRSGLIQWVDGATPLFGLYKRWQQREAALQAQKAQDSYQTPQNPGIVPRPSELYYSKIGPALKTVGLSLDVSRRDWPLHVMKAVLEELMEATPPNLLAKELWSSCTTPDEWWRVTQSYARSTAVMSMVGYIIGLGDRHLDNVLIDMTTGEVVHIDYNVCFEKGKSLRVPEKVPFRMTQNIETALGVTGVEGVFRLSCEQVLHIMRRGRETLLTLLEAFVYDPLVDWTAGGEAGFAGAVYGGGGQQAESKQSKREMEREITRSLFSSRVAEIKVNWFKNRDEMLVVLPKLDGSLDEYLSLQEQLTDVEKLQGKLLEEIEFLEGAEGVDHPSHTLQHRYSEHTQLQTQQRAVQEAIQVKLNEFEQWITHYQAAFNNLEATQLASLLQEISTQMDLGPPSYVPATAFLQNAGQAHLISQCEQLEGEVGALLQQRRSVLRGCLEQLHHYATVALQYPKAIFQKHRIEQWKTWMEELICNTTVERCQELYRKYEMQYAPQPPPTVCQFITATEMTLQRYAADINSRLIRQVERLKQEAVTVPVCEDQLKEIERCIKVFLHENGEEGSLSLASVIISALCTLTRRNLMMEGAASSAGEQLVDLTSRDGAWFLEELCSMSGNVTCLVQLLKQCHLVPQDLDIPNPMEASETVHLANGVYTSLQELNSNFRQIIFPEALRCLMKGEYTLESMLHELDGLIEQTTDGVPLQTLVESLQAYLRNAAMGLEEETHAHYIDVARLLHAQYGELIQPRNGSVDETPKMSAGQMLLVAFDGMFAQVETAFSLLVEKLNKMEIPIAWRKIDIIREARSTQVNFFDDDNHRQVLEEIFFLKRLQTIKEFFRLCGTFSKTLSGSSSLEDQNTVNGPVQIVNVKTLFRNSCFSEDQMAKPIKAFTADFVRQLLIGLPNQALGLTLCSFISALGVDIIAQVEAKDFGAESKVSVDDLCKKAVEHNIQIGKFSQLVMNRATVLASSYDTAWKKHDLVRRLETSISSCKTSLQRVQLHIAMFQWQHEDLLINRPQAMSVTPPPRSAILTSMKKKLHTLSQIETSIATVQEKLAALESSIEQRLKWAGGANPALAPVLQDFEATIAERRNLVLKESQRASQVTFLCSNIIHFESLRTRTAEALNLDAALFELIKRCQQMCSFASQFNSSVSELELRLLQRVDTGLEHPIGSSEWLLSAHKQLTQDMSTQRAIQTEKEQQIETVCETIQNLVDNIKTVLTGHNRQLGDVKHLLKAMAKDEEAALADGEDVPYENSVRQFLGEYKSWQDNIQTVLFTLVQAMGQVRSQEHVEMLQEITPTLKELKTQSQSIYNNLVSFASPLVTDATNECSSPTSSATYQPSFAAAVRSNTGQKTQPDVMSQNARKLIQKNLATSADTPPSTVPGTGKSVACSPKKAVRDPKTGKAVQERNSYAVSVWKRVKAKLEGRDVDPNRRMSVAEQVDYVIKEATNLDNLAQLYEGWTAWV
Sequence of PI3K-γ (P48736 whole entry, species assumed): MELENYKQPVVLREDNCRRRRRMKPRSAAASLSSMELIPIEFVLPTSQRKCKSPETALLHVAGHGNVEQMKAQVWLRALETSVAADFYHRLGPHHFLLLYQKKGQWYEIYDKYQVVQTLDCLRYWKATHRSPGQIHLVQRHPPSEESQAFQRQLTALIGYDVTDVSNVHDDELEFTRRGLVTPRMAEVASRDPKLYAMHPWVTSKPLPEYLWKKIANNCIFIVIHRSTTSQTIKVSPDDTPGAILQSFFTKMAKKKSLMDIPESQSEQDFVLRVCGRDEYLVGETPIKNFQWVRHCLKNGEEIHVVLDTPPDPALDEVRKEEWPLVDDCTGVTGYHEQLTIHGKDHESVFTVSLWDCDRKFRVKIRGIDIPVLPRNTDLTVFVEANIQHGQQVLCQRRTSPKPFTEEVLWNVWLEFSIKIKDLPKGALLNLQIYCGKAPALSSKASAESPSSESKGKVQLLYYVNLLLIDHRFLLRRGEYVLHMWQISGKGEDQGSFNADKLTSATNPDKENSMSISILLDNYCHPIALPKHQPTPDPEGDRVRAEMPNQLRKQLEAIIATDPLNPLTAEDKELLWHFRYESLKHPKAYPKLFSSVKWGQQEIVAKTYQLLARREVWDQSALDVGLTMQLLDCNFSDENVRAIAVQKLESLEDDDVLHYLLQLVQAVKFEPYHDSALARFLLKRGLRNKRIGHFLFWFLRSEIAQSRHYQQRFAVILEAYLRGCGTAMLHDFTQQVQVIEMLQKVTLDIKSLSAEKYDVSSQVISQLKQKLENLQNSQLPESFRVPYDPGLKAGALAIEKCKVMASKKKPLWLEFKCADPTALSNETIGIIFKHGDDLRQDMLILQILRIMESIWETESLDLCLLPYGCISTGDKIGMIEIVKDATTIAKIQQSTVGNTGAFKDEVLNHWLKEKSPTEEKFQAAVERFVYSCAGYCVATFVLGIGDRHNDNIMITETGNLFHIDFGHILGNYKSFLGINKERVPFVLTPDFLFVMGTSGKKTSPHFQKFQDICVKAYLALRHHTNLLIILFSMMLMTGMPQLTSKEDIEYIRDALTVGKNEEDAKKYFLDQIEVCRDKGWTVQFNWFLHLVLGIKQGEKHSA

SMILES	IC50 (Human mTOR (FLAG-TOR))	IC50 (human SMG-1 (hSMG-1))	IC50 [1]	IC50 (PI3K-γ; read-out: IC50 PI3Kγ)	IC50 (PI3K-α)	IC50 [2]	IC50 [3]	IC50 (PI3K-γ)	IC50 (PI3K-γ; read-out: IC50 PI3Kγ, listed as 728)	IC50 ([2]; PC3-mm2 cells)	IC50 (PI3K-α; listed as 728)
O=C(Cc1ccc(-c2nc(N3CCOCC3)nc(N3CCOCC3)n2)cc1)Nc1cccnc1 [Example 477, 2-[4-(4,6-dimorpholin-4-yl-1,3,5-triazin-2-yl)phenyl]-N-pyridin-3-ylacetamide]	14000 nM	9250 nM	–	–	–	–	–	–	–	–	–
CNC(=O)Nc1ccc(-c2nc(N3CCOCC3)nc(N3CCOCC3)n2)cc1 [Example 476, 1-[4-(4,6-dimorpholin-4-yl-1,3,5-triazin-2-yl)phenyl]-3-methylurea]	5 nM	19 nM	–	–	–	–	–	–	–	–	–
C[C@@H]1COCCN1c1nc(-c2ccc(NC(=O)Nc3ccc(C(=O)N(C)C)cc3)cc2)nc(N2CCOC[C@H]2C)n1 [Example 452, 4-(3-(4-(4,6-bis((R)-3-methylmorpholino)-1,3,5-triazin-2-yl)phenyl)ureido)-N,N-dimethylbenzamide]	0.55 nM	–	< 0.8 nM	502 nM	41 nM	–	–	–	–	–	–
O=C(CN1CCCC1)Nc1ccc(NC(=O)Nc2ccc(-c3nc(N4C5CCC4COC5)nc(N4C5CCC4COC5)n3)cc2)cc1 [Example 375, N-(4-(3-(4-(4,6-di(3-oxa-8-azabicyclo[3.2.1]octan-8-yl)-1,3,5-triazin-2-yl)phenyl)ureido)phenyl)-2-(pyrrolidin-1-yl)acetamide]	0.15 nM	–	< 0.8 nM	2590 nM	44 nM	–	–	–	–	–	–
CN1CCN(c2ccc(NC(=O)Nc3ccc(-c4nc(N5CC[S+]([O-])CC5)nc(N5C6CCC5COC6)n4)cc3)cc2)CC1 [Example 426, 1-(4-(4-(3-oxa-8-azabicyclo[3.2.1]octan-8-yl)-6-sulfoxymorpholino-1,3,5-triazin-2-yl)phenyl)-3-(4-(4-methylpiperazin-1-yl)phenyl)urea]	53 nM	–	700 nM	8480 nM	1220 nM	–	–	–	–	–	–
C[C@@H]1COCCN1c1nc(-c2ccc(NC(=O)Nc3cccnc3)cc2)nc(N2C[C@@H]3C[C@H]2CO3)n1 [Example 411, 1-(4-(4-((1S,4S)-2-oxa-5-azabicyclo[2.2.1]heptan-5-yl)-6-((R)-3-methylmorpholino)-1,3,5-triazin-2-yl)phenyl)-3-(pyridin-3-yl)urea]	3.6 nM	–	250 nM	–	1900 nM	–	–	> 10000 nM	–	–	–
O=C(Nc1ccncc1)Nc1ccc(-c2nc(C3CCOCC3)nc(N3C4CCC3COC4)n2)cc1 [Example 406, 1-(4-(4-(3-oxa-8-azabicyclo[3.2.1]octan-8-yl)-6-(tetrahydro-2H-pyran-4-yl)-1,3,5-triazin-2-yl)phenyl)-3-(pyridin-4-yl)urea]	0.38 nM	–	2.4 nM	1880 nM	478 nM	–	–	–	–	–	–
CN1CCN(c2ccc(NC(=O)Nc3ccc(-c4nc(-c5ccc(NC(=O)Nc6ccncc6)cc5)nc(N5CC6CCC(C5)O6)n4)cc3)cc2)CC1 [Example 148, 1-[4-(4-methylpiperazin-1-yl)phenyl]-3-{4-[4-(8-oxa-3-azabicyclo[3.2.1]oct-3-yl)-6-{4-[(pyridin-4-ylcarbamoyl)amino]phenyl}-1,3,5-triazin-2-yl]phenyl}urea]	8 nM	–	680 nM	620 nM	300 nM	–	–	–	–	–	–
O=C(Nc1ccc(C(=O)N2CCCC2)cc1)Nc1ccc(-c2nc(C3CCOCC3)nc(N3C4CCC3COC4)n2)cc1 [Example 456, 1-(4-(4-(3-oxa-8-azabicyclo[3.2.1]octan-8-yl)-6-(tetrahydro-2H-pyran-4-yl)-1,3,5-triazin-2-yl)phenyl)-3-(4-(pyrrolidine-1-carbonyl)phenyl)urea]	0.7 nM	–	< 0.8 nM	1550 nM	150 nM	–	–	–	–	–	–
O=C(Nc1ccncc1)Nc1ccc(-c2nc(N3CCC(NCCO)CC3)nc(N3CC4CCC(C3)O4)n2)cc1 [Example 123, 1-(4-(4-(8-oxa-3-azabicyclo[3.2.1]octan-3-yl)-6-(4-(2-hydroxyethylamino)piperidin-1-yl)-1,3,5-triazin-2-yl)phenyl)-3-(pyridin-4-yl)urea]	115 nM	–	4100 nM	6350 nM	760 nM	–	–	–	–	–	–

Further lines, results first:

IC50 (Human mTOR (FLAG-TOR))	IC50 (human SMG-1 (hSMG-1))	IC50 [1]	IC50 (PI3K-γ; read-out: IC50 PI3Kγ)	IC50 (PI3K-α)	IC50 [2]	IC50 [3]	IC50 (PI3K-γ)	IC50 (PI3K-γ; read-out: IC50 PI3Kγ, listed as 728)	IC50 ([2]; PC3-mm2 cells)	IC50 (PI3K-α; listed as 728)	SMILES
1 nM	3 nM	–	–	–	–	–	–	–	–	–	CNC(=O)Nc1ccc(-c2nc(-c3ccc(NC(=O)Nc4ccc(C(N)=O)cc4)cc3)nc(N3CC4CCC(C3)O4)n2)cc1 [Example 464, 4-[({4-[4-{4-[(methylcarbamoyl)amino]phenyl}-6-(8-oxa-3-azabicyclo[3.2.1]oct-3-yl)-1,3,5-triazin-2-yl]phenyl}carbamoyl)amino]benzamide]
35 nM	3650 nM	–	–	–	–	–	–	–	–	–	O=C(Nc1ccc(-c2nc(N3CCOCC3)nc(N3CCOCC3)n2)cc1)C(F)F [Example 473, N-[4-(4,6-dimorpholin-4-yl-1,3,5-triazin-2-yl)phenyl]-2,2-difluoroacetamide]
2 nM	–	21 nM	3250 nM	413 nM	–	–	–	–	–	–	C[C@@H]1COCCN1c1nc(-c2ccc(NC(=O)Nc3ccc(CN(C)C)cc3)cc2)nc(N2CCOC[C@H]2C)n1 [Example 401, 1-(4-(4,6-bis((R)-3-methylmorpholino)-1,3,5-triazin-2-yl)phenyl)-3-(4-((dimethylamino)methyl)phenyl)urea]
0.44 nM	–	3 nM	33 nM	6 nM	37.3 nM	32.7 nM	–	–	–	–	O=C(Nc1ccncc1)Nc1ccc(-c2nc(C3CCOCC3)nc(N3CCOCC3)n2)cc1 [Example 101, 1-{4-[4-Morpholin-4-yl-6-(tetrahydro-pyran-4-yl)-[1,3,5]triazin-2-yl]-phenyl}-3-pyridin-4-yl-urea]
2.3 nM	–	18 nM	–	519 nM	–	–	> 10000 nM	–	–	–	CC(C)N1CCN(c2ccc(NC(=O)Nc3ccc(-c4nc(N5CCOC[C@H]5C)nc(N5CCOC[C@H]5C)n4)cc3)cc2)CC1 [Example 448, 1-(4-(4,6-bis((R)-3-methylmorpholino)-1,3,5-triazin-2-yl)phenyl)-3-(4-(4-isopropylpiperazin-1-yl)phenyl)urea]
2.65 nM	–	90 nM	–	2120 nM	–	–	> 10000 nM	–	–	–	O=C(Nc1ccc(-c2nc(N3CC4CCC(C3)O4)nc(N3CC4CCC(C3)O4)n2)cc1)NC1CC1 [Example 30, 1-cyclopropyl-3-[4-(4,6-di-8-oxa-3-azabicyclo[3.2.1]oct-3-yl-1,3,5-triazin-2-yl)phenyl]urea]
2.3 nM	–	60 nM	6170 nM	403 nM	–	–	–	–	–	–	COCCNc1nc(-c2ccc(NC(=O)Nc3cccnc3)cc2)nc(N2CC3CCC(C2)O3)n1 [Example 258, 1-(4-{4-[(2-methoxyethyl)amino]-6-(8-oxa-3-azabicyclo[3.2.1]oct-3-yl)-1,3,5-triazin-2-yl}phenyl)-3-pyridin-3-ylurea]
0.8 nM	–	105 nM	3130 nM	401 nM	–	–	–	–	–	–	CC(C)Nc1nc(-c2ccc(NC(=O)Nc3cccnc3)cc2)nc(N2CC3CCC(C2)O3)n1 [Example 193, 1-{4-[4-(isopropylamino)-6-(8-oxa-3-azabicyclo[3.2.1]oct-3-yl)-1,3,5-triazin-2-yl]phenyl}-3-pyridin-3-ylurea]
16 nM	–	1000 nM	8750 nM	840 nM	–	–	–	–	–	–	COC(=O)CNC1CCN(c2nc(-c3ccc(NC(=O)Nc4ccncc4)cc3)nc(N3CC4CCC(C3)O4)n2)CC1 [Example 125, Methyl 2-(1-(4-(8-oxa-3-azabicyclo[3.2.1]octan-3-yl)-6-(4-(3-pyridin-4-ylureido)phenyl)-1,3,5-triazin-2-yl)piperidin-4-ylamino)acetate]
0.39 nM and 0.38 nM	–	38 nM	41 nM	12 nM	107 nM	59 nM	–	47 nM	107 nM	10.5 nM	O=C(Nc1ccncc1)Nc1ccc(-c2nc(N3CCOCC3)nc(N3C(CO)CCC3CO)n2)cc1 (stereo not shown) [Example 268, 1-(4-{4-[2,5-bis(hydroxymethyl)pyrrolidin-1-yl]-6-morpholin-4-yl-1,3,5-triazin-2-yl}phenyl)-3-pyridin-4-ylurea]
4.15 nM	–	350 nM	–	1230 nM	–	–	> 10000 nM	–	–	–	O=C(Nc1ccc(-c2nc(N3CC4CCC(C3)O4)nc(N3CC4CCC(C3)O4)n2)cc1)OCCO [Example 27, 2-hydroxyethyl[4-(4,6-di-8-oxa-3-azabicyclo[3.2.1]oct-3-yl-1,3,5-triazin-2-yl)phenyl]carbamate]
19 nM	–	1000 nM	1490 nM	115 nM	–	–	–	–	–	–	O=C(Nc1ccncc1)Nc1ccc(-c2nc(N3CCNCC3)nc(N3CC4CCC(C3)O4)n2)cc1 [Example 107, 1-(4-(4-(8-oxa-3-azabicyclo[3.2.1]octan-3-yl)-6-(piperazin-1-yl)-1,3,5-triazin-2-yl)phenyl)-3-(pyridin-4-yl)urea]
0.5 nM	–	10 nM	572 nM	152 nM	–	–	–	–	–	–	CC(C)Nc1nc(-c2ccc(NC(=O)Nc3ccc(CCO)cc3)cc2)nc(N2CC3CCC(C2)O3)n1 [Example 222, 1-[4-(2-hydroxyethyl)phenyl]-3-(4-{4-[(1-methylethyl)amino]-6-(8-oxa-3-azabicyclo[3.2.1]oct-3-yl)-1,3,5-triazin-2-yl}phenyl)urea]
